For this test, the system named is L1210 leukemia ip in BDF1 mice, survival T/C. As to the kind of experiment: NCI In Vivo Anticancer Drug Screen. Data for tumor model L1210 Leukemia (intraperitoneal) in B6D2F1 (BDF1) mice. To be noted: endpoint: mean survival time, higher = longer survival. The method in brief:
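Ratio derived from survival: compound-dosed mice over vehicle-dosed mice, all bearing a transplantable tumor.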

The mark [1] stands for this setting: dose: 100.0 mg/kg/injection, schedule: Q01DX009 (ip), vehicle: Klucel (hydroxypropylcellulose) (HPC).
Where [2] appears, read: dose: 100.0 mg/kg/injection, schedule: Q04DX003 (ip), vehicle: Klucel (hydroxypropylcellulose) (HPC).
The mark [3] stands for this setting: dose: 200.0 mg/kg/injection, schedule: Q04DX003 (ip), vehicle: Klucel (hydroxypropylcellulose) (HPC).
The mark [4] stands for this setting: dose: 100.0 mg/kg/injection, schedule: Q01DX009 (ip), vehicle: saline with Tween-80.
Where [5] appears, read: dose: 200.0 mg/kg/injection, schedule: Q01DX009 (ip), vehicle: saline with Tween-80.
Setting [6] is: dose: 400.0 mg/kg/injection, schedule: Q01DX009 (ip), vehicle: saline with Tween-80.
Setting [7] is: dose: 100.0 mg/kg/injection, schedule: Q01DX001 (ip), vehicle: other.
Setting [8] is: dose: 200.0 mg/kg/injection, schedule: Q01DX001 (ip), vehicle: other.
Where [9] appears, read: dose: 100.0 mg/kg/injection, schedule: Q01DX001 (ip), vehicle: Klucel (hydroxypropylcellulose) (HPC).
Where [10] appears, read: dose: 200.0 mg/kg/injection, schedule: Q01DX001 (ip), vehicle: Klucel (hydroxypropylcellulose) (HPC).
[11] abbreviates: dose: 400.0 mg/kg/injection, schedule: Q01DX001 (ip), vehicle: Klucel (hydroxypropylcellulose) (HPC).
Setting [12] is: dose: 100.0 mg/kg/injection, schedule: Q01DX001 (ip), vehicle: saline.
[13] abbreviates: dose: 200.0 mg/kg/injection, schedule: Q01DX001 (ip), vehicle: saline.
Setting [14] is: dose: 400.0 mg/kg/injection, schedule: Q01DX001 (ip), vehicle: saline.
Where [15] appears, read: dose: 100.0 mg/kg/injection, schedule: Q04DX002 (ip), vehicle: saline with Tween-80.
Setting [16] is: dose: 200.0 mg/kg/injection, schedule: Q04DX002 (ip), vehicle: saline with Tween-80.
Where [17] appears, read: dose: 400.0 mg/kg/injection, schedule: Q04DX002 (ip), vehicle: saline with Tween-80.
[18] abbreviates: dose: 100.0 mg/kg/injection, schedule: Q04DX003 (ip), vehicle: saline with Tween-80.
Where [19] appears, read: dose: 200.0 mg/kg/injection, schedule: Q04DX003 (ip), vehicle: saline with Tween-80.
[20] abbreviates: dose: 400.0 mg/kg/injection, schedule: Q04DX003 (ip), vehicle: saline with Tween-80.

Several values for one entry are separate records, joined by “and”; a condition that tells them apart may be missing. Equal entries are not always repeated. Inconclusive results and toxic doses are left out.

Regarding `CCN(CC)CCCC#CCN1CCCC1`, the T/C is, setting by setting: (dose: 50.0 mg/kg/injection, schedule: Q01DX009 (ip), vehicle: Klucel (hydroxypropylcellulose) (HPC)) 92 % of control; under setting [1], 100 % of control; under setting [2], 91 % of control; under setting [3], 100 % of control.

Turning to `COC(=O)C1(C)CCCC2(C)C1CCC13C=C(C(C)C)C(CC1C(=O)O)CC23` (stereo not drawn), the T/C is 95 % of control under setting [4], 93 % of control under setting [5] and 87 % of control under setting [6].

With `CCCCCCCCC(=O)Nc1nc2nc[nH]c2c(=O)[nH]1`, the T/C by setting is: under setting [7], 94 % of control; under setting [1], 94 % of control; under setting [8], 86 % of control; (dose: 200.0 mg/kg/injection, schedule: Q01DX009 (ip), vehicle: Klucel (hydroxypropylcellulose) (HPC)) 90 % of control; (dose: 400.0 mg/kg/injection, schedule: Q01DX001 (ip), vehicle: other) 86 % of control; (dose: 400.0 mg/kg/injection, schedule: Q01DX009 (ip), vehicle: Klucel (hydroxypropylcellulose) (HPC)) 90 % of control.

On to `CC1=C(/C=C/C(C)=C/C=C/C(C)=C/CO)C(C)(C)CCC1`, for which the T/C was 90 % of control (dose: 50.0 mg/kg/injection, schedule: Q01DX009 (ip), vehicle: steriod suspending solution); 100 % of control under setting [7]; 95 % of control (dose: 100.0 mg/kg/injection, schedule: Q01DX009 (ip), vehicle: steriod suspending solution); 98 % of control (dose: 150.0 mg/kg/injection, schedule: Q01DX001 (ip), vehicle: other); 95 % of control and 102 % of control under setting [8]; 101 % of control (dose: 200.0 mg/kg/injection, schedule: Q01DX001 (sc), vehicle: steriod suspending solution). The T/C (dose: 400.0 mg/kg/injection, schedule: Q01DX001 (sc), vehicle: steriod suspending solution) is 98 % of control.

Consider `Nc1cccc(CCCCc2ccc(Cl)cc2Cl)c1`, for which the T/C was 97 % of control under setting [9], 96 % of control under setting [10] and 102 % of control under setting [11].

With `O=c1c(O)c(-c2ccc(-c3oc4ccccc4c(=O)c3O)cc2)oc2ccccc12`, the T/C by setting is: (dose: 50.0 mg/kg/injection, schedule: Q01DX001 (ip), vehicle: saline) 97 % of control; under setting [12], 89 % of control; under setting [13], 91 % of control; under setting [14], 101 % of control.

Take `O=CC(Cl)Cl`: the T/C is, setting by setting: (dose: 100.0 mg/kg/injection, schedule: Q01DX009 (ip), vehicle: saline) 92 % of control; (dose: 200.0 mg/kg/injection, schedule: Q01DX009 (ip), vehicle: saline) 110 % of control; (dose: 400.0 mg/kg/injection, schedule: Q01DX009 (ip), vehicle: saline) 108 % of control.

In the case of `CCCC(CCC)(C(=O)OCCOCCCl)c1cccc2ccccc12`, the T/C is 89 % of control under setting [15], 99 % of control under setting [16] and 95 % of control under setting [17].

For `CCOC(=O)CCCS`, the T/C reads like this: (dose: 75.0 mg/kg/injection, schedule: Q01DX001 (ip), vehicle: carboxymethylcellulose (CMC)) 93 % of control; (dose: 150.0 mg/kg/injection, schedule: Q01DX001 (ip), vehicle: carboxymethylcellulose (CMC)) 93 % of control.

Regarding `CC(C)(C)OC(=O)NCCCCC(NC(=O)OCc1ccccc1)C(=O)Oc1ccc([N+](=O)[O-])cc1` (stereo not drawn), the T/C under setting [4] was 88 % of control and the T/C under setting [5] is 93 % of control.

As to `O=C(Cc1ccccc1)Nc1ccc(Cl)cc1C(=O)c1ccccc1`, the T/C was 101 % of control (dose: 100.0 mg/kg/injection, schedule: Q04DX002 (ip), vehicle: saline); 93 % of control (dose: 200.0 mg/kg/injection, schedule: Q04DX002 (ip), vehicle: saline); 90 % of control (dose: 400.0 mg/kg/injection, schedule: Q04DX002 (ip), vehicle: saline).

On to `NC(C(=O)O)c1cccc(Cl)c1` (stereo not drawn), for which the T/C was 123 % of control under setting [9]; 100 % of control under setting [2]; 109 % of control under setting [10]; 91 % of control under setting [3]; 105 % of control under setting [11]; 100 % of control (dose: 400.0 mg/kg/injection, schedule: Q04DX003 (ip), vehicle: Klucel (hydroxypropylcellulose) (HPC)).

Take `CCCCCCOC(=O)Nc1ccc(S(=O)(=O)N(C)C)cc1`: the T/C is, setting by setting: under setting [12], 103 % of control; under setting [13], 108 % of control; under setting [14], 102 % of control.

For `NC(=S)N/N=C/c1cccc(CC(O)(C(F)(F)F)C(F)(F)F)n1`, the T/C is 97 % of control (dose: 12.5 mg/kg/injection, schedule: Q01DX009 (ip), vehicle: saline with Tween-80); 95 % of control (dose: 25.0 mg/kg/injection, schedule: Q01DX009 (ip), vehicle: saline with Tween-80); 93 % of control (dose: 50.0 mg/kg/injection, schedule: Q01DX009 (ip), vehicle: saline with Tween-80).

With `O=C(NCCCCOc1ccc([N+](=O)[O-])cc1Cl)c1ccc(S(=O)(=O)F)cc1`, the T/C is, setting by setting: under setting [4], 93 % of control; under setting [18], 92 % of control; under setting [5], 93 % of control; under setting [19], 93 % of control; under setting [6], 100 % of control; under setting [20], 111 % of control.

As to `O=C1/C(=C2\CCCc3ccc(Cl)cc32)CCc2ccc(Cl)cc21`, the T/C under setting [4] was 100 % of control, the T/C under setting [5] was 97 % of control and the T/C under setting [6] is 96 % of control.

As to `Clc1ccc2c(c1)Sc1ccccc1O2`, the T/C is, setting by setting: under setting [15], 101 % of control; under setting [16], 101 % of control; under setting [17], 97 % of control.

As for `O=P(NC1CCCCC1)(Oc1ccccc1)Oc1ccccc1`, the T/C by setting is: (dose: 50.0 mg/kg/injection, schedule: Q01DX001 (ip), vehicle: carboxymethylcellulose (CMC)) 95 % of control; (dose: 100.0 mg/kg/injection, schedule: Q01DX001 (ip), vehicle: carboxymethylcellulose (CMC)) 92 % of control; under setting [18], 102 % of control; (dose: 200.0 mg/kg/injection, schedule: Q01DX001 (ip), vehicle: carboxymethylcellulose (CMC)) 97 % of control; under setting [19], 97 % of control; (dose: 400.0 mg/kg/injection, schedule: Q01DX001 (ip), vehicle: carboxymethylcellulose (CMC)) 97 % of control. In addition, the T/C under setting [20] was 100 % of control.

`O=[N+]([O-])c1ccc(Cl)c2nonc12`: the T/C was 89 % of control (dose: 1.65 mg/kg/injection, schedule: Q04DX002 (ip), vehicle: Klucel (hydroxypropylcellulose) (HPC)); 92 % of control (dose: 3.12 mg/kg/injection, schedule: Q04DX002 (ip), vehicle: Klucel (hydroxypropylcellulose) (HPC)); 94 % of control (dose: 6.25 mg/kg/injection, schedule: Q04DX002 (ip), vehicle: Klucel (hydroxypropylcellulose) (HPC)).

For `CCc1c(Nc2ccc(Cl)c(Cl)c2)[nH]c(N)nc1=S`, the T/C reads like this: (dose: 100.0 mg/kg/injection, schedule: Q01DX Z (ip), vehicle: methylcellulose (MC)) 90 % of control; (dose: 200.0 mg/kg/injection, schedule: Q01DX Z (ip), vehicle: methylcellulose (MC)) 105 % of control.

Regarding `CN1CC2(Cc3ccccc3)c3ccccc3NC2(NC(=O)CCl)C1=O` (stereo not drawn), the T/C runs as follows: (dose: 25.0 mg/kg/injection, schedule: Q04DX002 (ip), vehicle: saline with Tween-80) 87 % of control; (dose: 50.0 mg/kg/injection, schedule: Q04DX002 (ip), vehicle: saline with Tween-80) 90 % of control; under setting [15], 91 % of control.

Take `Cc1cc(C(=O)NC(CCC(=O)O)C(=O)O)cc(C)c1N(C)Cc1cnc2nc(N)nc(N)c2n1` (stereo not drawn): the T/C runs as follows: (dose: 3.13 mg/kg/injection, schedule: Q01DX009 (ip), vehicle: saline) 158 % of control; (dose: 6.25 mg/kg/injection, schedule: Q01DX009 (ip), vehicle: saline) 161 % of control; (dose: 12.5 mg/kg/injection, schedule: Q01DX009 (ip), vehicle: saline) 153 % of control and 165 % of control; (dose: 50.0 mg/kg/injection, schedule: Q01DX009 (ip), vehicle: sodium bicarbonate) 101 % of control.

Source of the values: PubChem BioAssay AID248 (DTP/NCI, 2004).
